{"source": "the OligoGym collection", "biological_target": "IRF4", "settings": "ASO", "note": "Several values for one entry are separate records, joined by “and”; a condition that tells them apart may be missing. Identical values can stand only once. After the bases stand the sugars from the 5' end (letter, count) and the backbone: PS all phosphorothioate, else s phosphorothioate and o phosphodiester by linkage. Methylation of C is not given here. e = 2'-O-(2-methoxyethyl) (MOE); k = constrained ethyl (cEt); d = 2'-deoxy (DNA)", "data": [{"sequence": "CTGAACTGAAATCTCC (sugars k3 d10 k3, PS)", "values": [{"measurement": "target mRNA inhibition", "setting": "SK-MEL-28, 4 µM", "value": "64% and 63%"}]}, {"sequence": "CTGAACTGTGTAACTC (sugars k3 d10 k3, PS)", "values": [{"measurement": "target mRNA inhibition", "setting": "SK-MEL-28, 4 µM", "value": 28, "unit": "%"}]}, {"sequence": "CTGAGACTACACCTAC (sugars k3 d10 k3, PS)", "values": [{"measurement": "target mRNA inhibition", "setting": "MM.1R, 1 µM", "value": -40, "unit": "%"}]}, {"sequence": "CTGAGTTACCGCATTG (sugars k3 d10 k3, PS)", "values": [{"measurement": "target mRNA inhibition", "setting": "MM.1R, 1 µM", "value": "49% and 54%"}]}, {"sequence": "CTGATCGCTGGACAGC (sugars k3 d10 k3, PS)", "values": [{"measurement": "target mRNA inhibition", "setting": "SK-MEL-28, 4 µM", "value": 20, "unit": "%"}]}, {"sequence": "CTGCACTCGCCCTGGA (sugars k3 d10 k3, PS)", "values": [{"measurement": "target mRNA inhibition", "setting": "SK-MEL-28, 4 µM", "value": 42, "unit": "%"}]}, {"sequence": "CTGCAGCCAAGGATAA (sugars k3 d10 k3, PS)", "values": [{"measurement": "target mRNA inhibition", "setting": "SK-MEL-28, 4 µM", "value": 48, "unit": "%"}]}, {"sequence": "CTGCATCAAATCAAGT (sugars k3 d10 k3, PS)", "values": [{"measurement": "target mRNA inhibition", "setting": "SK-MEL-28, 4 µM", "value": 47, "unit": "%"}]}, {"sequence": "CTGCATTTGCAAATAA (sugars k4 d8 k4, PS)", "values": [{"measurement": "target mRNA inhibition", "setting": "SK-MEL-28, 4 µM", "value": -8, "unit": "%"}]}, {"sequence": "CTGCCAAGTTGAAGAC (sugars k3 d10 k3, PS)", "values": [{"measurement": "target mRNA inhibition", "setting": "MM.1R, 1 µM", "value": 33, "unit": "%"}]}, {"sequence": "CTGCTTGAGGTTTTCC (sugars kddddddddddkekek, PS)", "values": [{"measurement": "target mRNA inhibition", "setting": "MM.1R, 1 µM", "value": 8, "unit": "%"}]}, {"sequence": "CTGCTTGAGGTTTTCC (sugars kkdddddddddkdkdk, PS)", "values": [{"measurement": "target mRNA inhibition", "setting": "MM.1R, 1 µM", "value": 36, "unit": "%"}]}, {"sequence": "CTGGAACATTGTTGGA (sugars k3 d10 k3, PS)", "values": [{"measurement": "target mRNA inhibition", "setting": "SK-MEL-28, 4 µM", "value": 46, "unit": "%"}]}, {"sequence": "CTGGAGAGCAATGAAC (sugars k3 d10 k3, PS)", "values": [{"measurement": "target mRNA inhibition", "setting": "SK-MEL-28, 4 µM", "value": 67, "unit": "%"}]}, {"sequence": "CTGGAGTGAACCCTTC (sugars k3 d10 k3, PS)", "values": [{"measurement": "target mRNA inhibition", "setting": "SK-MEL-28, 4 µM", "value": 56, "unit": "%"}]}, {"sequence": "CTGGCATCGAGACGGG (sugars k3 d10 k3, PS)", "values": [{"measurement": "target mRNA inhibition", "setting": "SK-MEL-28, 4 µM", "value": 47, "unit": "%"}]}, {"sequence": "CTGGCTCCGCTCAACC (sugars k3 d10 k3, PS)", "values": [{"measurement": "target mRNA inhibition", "setting": "SK-MEL-28, 4 µM", "value": 52, "unit": "%"}]}, {"sequence": "CTGTAACTGACTAACA (sugars k3 d10 k3, PS)", "values": [{"measurement": "target mRNA inhibition", "setting": "SK-MEL-28, 4 µM", "value": 23, "unit": "%"}]}, {"sequence": "CTGTAGGATTTTACAT (sugars k3 d10 k3, PS)", "values": [{"measurement": "target mRNA inhibition", "setting": "SK-MEL-28, 4 µM", "value": 24, "unit": "%"}]}, {"sequence": "CTGTAGTATGAGAAAC (sugars k3 d10 k3, PS)", "values": [{"measurement": "target mRNA inhibition", "setting": "SK-MEL-28, 4 µM", "value": 45, "unit": "%"}]}, {"sequence": "CTGTTACCGATGCTTC (sugars kddddddddddkekek, PS)", "values": [{"measurement": "target mRNA inhibition", "setting": "MM.1R, 1 µM", "value": "36% and 26%"}]}, {"sequence": "CTGTTAGCTACAAAGA (sugars k3 d10 k3, PS)", "values": [{"measurement": "target mRNA inhibition", "setting": "SK-MEL-28, 4 µM", "value": 56, "unit": "%"}]}, {"sequence": "CTTAGAATGCATAACA (sugars k3 d10 k3, PS)", "values": [{"measurement": "target mRNA inhibition", "setting": "SK-MEL-28, 4 µM", "value": 26, "unit": "%"}]}, {"sequence": "CTTAGGCACATCAATG (sugars k3 d10 k3, PS)", "values": [{"measurement": "target mRNA inhibition", "setting": "MM.1R, 1 µM", "value": 8, "unit": "%"}]}, {"sequence": "CTTATAGCACTCTCCT (sugars k3 d10 k3, PS)", "values": [{"measurement": "target mRNA inhibition", "setting": "SK-MEL-28, 4 µM", "value": 33, "unit": "%"}]}, {"sequence": "CTTCACTCAGCAAGTG (sugars k3 d10 k3, PS)", "values": [{"measurement": "target mRNA inhibition", "setting": "SK-MEL-28, 4 µM", "value": 43, "unit": "%"}]}, {"sequence": "CTTCATCAGACTAAGT (sugars k3 d10 k3, PS)", "values": [{"measurement": "target mRNA inhibition", "setting": "SK-MEL-28, 4 µM", "value": 31, "unit": "%"}]}, {"sequence": "CTTCTTCTTTATGCGA (sugars k3 d10 k3, PS)", "values": [{"measurement": "target mRNA inhibition", "setting": "SK-MEL-28, 4 µM", "value": 66, "unit": "%"}]}, {"sequence": "CTTGATAAAGGCTGAA (sugars k2 d9 e3 k2, PS)", "values": [{"measurement": "target mRNA inhibition", "setting": "MM.1R, 1 µM", "value": 10, "unit": "%"}]}, {"sequence": "CTTGATAAAGGCTGAA (sugars k3 d9 k3 e1, PS)", "values": [{"measurement": "target mRNA inhibition", "setting": "MM.1R, 1 µM", "value": 36, "unit": "%"}]}, {"sequence": "CTTGATAAAGGCTGAA (sugars kkdddddddddekeke, PS)", "values": [{"measurement": "target mRNA inhibition", "setting": "MM.1R, 1 µM", "value": 19, "unit": "%"}]}, {"sequence": "CTTGATAAAGGCTGAA (sugars kkkddddddddkekek, PS)", "values": [{"measurement": "target mRNA inhibition", "setting": "MM.1R, 1 µM", "value": 12, "unit": "%"}]}, {"sequence": "CTTGCCAGTGGTGGCC (sugars k4 d8 k4, PS)", "values": [{"measurement": "target mRNA inhibition", "setting": "SK-MEL-28, 4 µM", "value": -9, "unit": "%"}]}, {"sequence": "CTTGCCGCTGTCGATC (sugars k3 d10 k3, PS)", "values": [{"measurement": "target mRNA inhibition", "setting": "SK-MEL-28, 4 µM", "value": 25, "unit": "%"}]}, {"sequence": "CTTGGAGAAGTCCCGT (sugars k3 d10 k3, PS)", "values": [{"measurement": "target mRNA inhibition", "setting": "SK-MEL-28, 4 µM", "value": 39, "unit": "%"}]}, {"sequence": "CTTGTTCAAAGCGCAC (sugars k3 d10 k3, PS)", "values": [{"measurement": "target mRNA inhibition", "setting": "SK-MEL-28, 4 µM", "value": 32, "unit": "%"}]}, {"sequence": "CTTTAGCCCATGCTCC (sugars k3 d10 k3, PS)", "values": [{"measurement": "target mRNA inhibition", "setting": "SK-MEL-28, 4 µM", "value": 20, "unit": "%"}]}, {"sequence": "CTTTATGCGAAGAATT (sugars k3 d10 k3, PS)", "values": [{"measurement": "target mRNA inhibition", "setting": "SK-MEL-28, 4 µM", "value": 30, "unit": "%"}]}, {"sequence": "CTTTCACTAAAGTCAA (sugars k3 d10 k3, PS)", "values": [{"measurement": "target mRNA inhibition", "setting": "SK-MEL-28, 4 µM", "value": 51, "unit": "%"}]}, {"sequence": "CTTTTTTGGCTCCCTC (sugars k3 d10 k3, PS)", "values": [{"measurement": "target mRNA inhibition", "setting": "SK-MEL-28, 4 µM", "value": 36, "unit": "%"}]}, {"sequence": "GAAAACAGCCGCCGGC (sugars k3 d10 k3, PS)", "values": [{"measurement": "target mRNA inhibition", "setting": "SK-MEL-28, 4 µM", "value": 26, "unit": "%"}]}, {"sequence": "GAAAATCTGGATGAGC (sugars k3 d10 k3, PS)", "values": [{"measurement": "target mRNA inhibition", "setting": "MM.1R, 0.0625 µM", "value": 7, "unit": "%"}, {"measurement": "target mRNA inhibition", "setting": "MM.1R, 0.074 µM", "value": 11, "unit": "%"}, {"measurement": "target mRNA inhibition", "setting": "MM.1R, 0.222 µM", "value": -1, "unit": "%"}, {"measurement": "target mRNA inhibition", "setting": "MM.1R, 0.25 µM", "value": 8, "unit": "%"}, {"measurement": "target mRNA inhibition", "setting": "MM.1R, 0.666 µM", "value": -26, "unit": "%"}, {"measurement": "target mRNA inhibition", "setting": "MM.1R, 1 µM", "value": 22, "unit": "%"}, {"measurement": "target mRNA inhibition", "setting": "MM.1R, 4 µM", "value": 59, "unit": "%"}, {"measurement": "target mRNA inhibition", "setting": "SK-MEL-28, 4 µM", "value": 64, "unit": "%"}]}, {"sequence": "GAAACCGCTGGCAGGT (sugars k3 d10 k3, PS)", "values": [{"measurement": "target mRNA inhibition", "setting": "SK-MEL-28, 4 µM", "value": 50, "unit": "%"}]}, {"sequence": "GAAAGGAGGTAGTGGC (sugars k3 d10 k3, PS)", "values": [{"measurement": "target mRNA inhibition", "setting": "SK-MEL-28, 4 µM", "value": 23, "unit": "%"}]}, {"sequence": "GAAATACGACAACTTT (sugars k3 d10 k3, PS)", "values": [{"measurement": "target mRNA inhibition", "setting": "SK-MEL-28, 4 µM", "value": 22, "unit": "%"}]}, {"sequence": "GAACAATCCTGTACAC (sugars k3 d10 k3, PS)", "values": [{"measurement": "target mRNA inhibition", "setting": "SK-MEL-28, 4 µM", "value": -5, "unit": "%"}]}, {"sequence": "GAACAATCCTGTACAC (sugars k4 d8 k4, PS)", "values": [{"measurement": "target mRNA inhibition", "setting": "SK-MEL-28, 4 µM", "value": 0, "unit": "%"}]}, {"sequence": "GAACACACCACTATTC (sugars k3 d10 k3, PS)", "values": [{"measurement": "target mRNA inhibition", "setting": "MM.1R, 1 µM", "value": -20, "unit": "%"}]}, {"sequence": "GAACAGATAGTTAAGT (sugars k3 d10 k3, PS)", "values": [{"measurement": "target mRNA inhibition", "setting": "SK-MEL-28, 4 µM", "value": 17, "unit": "%"}]}, {"sequence": "GAACAGGAAGCCACTA (sugars k3 d10 k3, PS)", "values": [{"measurement": "target mRNA inhibition", "setting": "SK-MEL-28, 4 µM", "value": 23, "unit": "%"}]}, {"sequence": "GAACAGGACCTGGTCC (sugars k3 d10 k3, PS)", "values": [{"measurement": "target mRNA inhibition", "setting": "SK-MEL-28, 4 µM", "value": 25, "unit": "%"}]}, {"sequence": "GAACATCTCAGATACA (sugars k3 d10 k3, PS)", "values": [{"measurement": "target mRNA inhibition", "setting": "SK-MEL-28, 4 µM", "value": 42, "unit": "%"}]}, {"sequence": "GAACCTGCTGGGCTGG (sugars k4 d8 k4, PS)", "values": [{"measurement": "target mRNA inhibition", "setting": "SK-MEL-28, 4 µM", "value": 13, "unit": "%"}]}]}
